SMILES strings stand for the structures.

Here are results for 2 compounds from patent US20220168317A1, “Therapeutic Thiazine Dye Compositions and Methods of Use” (AB BioInnovations, Inc., priority 2020, published 2022).

Common to all, as to details: final concentration in well; CAMHB, 37° C., 24 hours; single compound
Experiment [1] relates to Staphylococcus aureus ATCC BAA-44.
Procedure: (§1) Similarly, starting with a 1% methylene blue solution, a 2-fold serial dilution series was generated consisting of 24 members having a methylene blue concentration ranging from 1% to 1.1920929×10^−7%. Each dilution series was prepared using Cation-Adjusted Muller Hinton broth (CAMHB).
(§2) For each dilution series, 0.1 ml of each dilution, in order from most concentrated to least concentrated, was placed into a separate well of a 96-well tissue-culture plate. Select bacterial species were diluted in CAMHB so that 0.1 ml contained approximately 1×10^6 bacteria per ml. […] The tissue-culture plates were incubated at 37° C. for 24 hours.
(§3) After 24 hours, each well was visually assessed using a light microscope for bacterial growth.
(§4) 0.1 ml of each dilution, in order from most concentrated to least concentrated, was placed into an individual well of a 96-well tissue-culture plate. Select bacterial species were diluted in CAMHB so that 0.1 ml contained approximately 1×10^6 bacteria per ml. […] The tissue-culture plates were incubated at 37° C. for 24 hours.
(§5) After 24 hours, each well was visually assessed using a light microscope for bacterial growth. The dilution with the lowest concentrations capable of inhibiting bacterial growth was defined as the MIC.
Experiment [2] relates to Pseudomonas aeruginosa ATCC 27853.
Procedure: as §1, §2, §3, §4, §5
The subject of experiment [3] is Klebsiella pneumoniae ATCC 13883.
Procedure: Each dilution series was prepared using Cation-Adjusted Muller Hinton broth (CAMHB).
as §2, §3

As for `O=P(O)(O)O` [Phosphoric Acid, phosphoric acid], the MIC in experiment [1], in experiment [2] and in experiment [3] was 0.332% in each case.
Take `CN(C)c1ccc2nc3ccc(=[N+](C)C)cc-3sc2c1` [Methylene Blue, 3,7-bis(dimethylamine)-phenothiazin-5-ium chloride]: the values for the MIC in experiment [1], in experiment [2] and in experiment [3] were 0.003906%, 0.5% and 0.25%, respectively.
